Experimental data from patent US20240148745A1, “COMPOUNDS FOR USE IN PROGRESSIVE MULTIPLE SCLEROSIS” (FONDAZIONE CENTRO SAN RAFFAELE, priority 2021, published 2024).

What was measured:
[1] = tested on: mouse cortical neurons; assay: Morphological integrity evaluation, NMDA 8 μM (MAP2 neurite length and branching); assay type: cell-based; conditions: 3 h pre-treatment, NMDA 8 μM 24 h; Z>0.5 criteria
In short: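 Mouse cortical neurons (14 DIV) pre-treated 3 h with compounds, then exposed 24 h to 8 μM NMDA; fixed, MAP2 immunostained with DAPI. Total neurite length and non-trunk branch number from 15 images/well, triplicates, converted to plate-based Z-scores; NAC positive, staurosporine and NMDA negative controls.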

[2] = tested on: LPC-induced demyelinated lesions of the mouse spinal cord; assay: LPC model of focal demyelination of the mouse spinal cord; assay type: in vivo
[3] = 30 mg/kg daily oral gavage, 14 dpi

Row | SMILES | preservation of neurite length and network integrity (branching) [1] | density of Olig2+CC1+ differentiated oligodendrocytes in LPC lesions ([2]; 30 mg/kg daily oral gavage, 5 to 14 dpi, readout 14 dpi) | % of remyelinated axons in the lesion [2, 3] | axonal density in LPC lesions [2, 3] | G-ratio ([2]; control vs treated, p<0.0001)
1 | NCCCC[C@H](NC(=O)[C@@H](Cc1cc(Br)c(O)c(Br)c1)NC(=O)N1CCC(N2Cc3ccccc3NC2=O)CC1)C(=O)N1CCN(c2ccncc2)CC1 [Olcegepant] | preserved both neurite length and the network integrity (branching) |  |  |  | 
2 | O=C(c1ccc(CN2CCOCC2)cc1)N1CCN(C2CC2)CC1 [Bavisant] |  | significantly increased the density of mature oligodendrocytes | significantly increased the number of remyelinated axons | not changes | enhances remyelination in vivo
